Experimental findings from the NIST ThermoML archive (doi:10.1021/je400188h) are described below.

For this data set the following is noted: Crystal; visual observation.

Numbers after ± are expanded uncertainties.

Regarding `O=C(O)[C@@H]1Cc2ccccc2N1` [(S)-indoline-2-carboxylic acid], the Normal melting temperature was 177.00 ± 0.5 °C.
